In this assay the target is T1, NKCC1 (Homo sapiens, UniProt P55011).
T1 construct: endogenous in cells; host or cells: native HEK293 cells
T1 sequence (P55011 1-1212): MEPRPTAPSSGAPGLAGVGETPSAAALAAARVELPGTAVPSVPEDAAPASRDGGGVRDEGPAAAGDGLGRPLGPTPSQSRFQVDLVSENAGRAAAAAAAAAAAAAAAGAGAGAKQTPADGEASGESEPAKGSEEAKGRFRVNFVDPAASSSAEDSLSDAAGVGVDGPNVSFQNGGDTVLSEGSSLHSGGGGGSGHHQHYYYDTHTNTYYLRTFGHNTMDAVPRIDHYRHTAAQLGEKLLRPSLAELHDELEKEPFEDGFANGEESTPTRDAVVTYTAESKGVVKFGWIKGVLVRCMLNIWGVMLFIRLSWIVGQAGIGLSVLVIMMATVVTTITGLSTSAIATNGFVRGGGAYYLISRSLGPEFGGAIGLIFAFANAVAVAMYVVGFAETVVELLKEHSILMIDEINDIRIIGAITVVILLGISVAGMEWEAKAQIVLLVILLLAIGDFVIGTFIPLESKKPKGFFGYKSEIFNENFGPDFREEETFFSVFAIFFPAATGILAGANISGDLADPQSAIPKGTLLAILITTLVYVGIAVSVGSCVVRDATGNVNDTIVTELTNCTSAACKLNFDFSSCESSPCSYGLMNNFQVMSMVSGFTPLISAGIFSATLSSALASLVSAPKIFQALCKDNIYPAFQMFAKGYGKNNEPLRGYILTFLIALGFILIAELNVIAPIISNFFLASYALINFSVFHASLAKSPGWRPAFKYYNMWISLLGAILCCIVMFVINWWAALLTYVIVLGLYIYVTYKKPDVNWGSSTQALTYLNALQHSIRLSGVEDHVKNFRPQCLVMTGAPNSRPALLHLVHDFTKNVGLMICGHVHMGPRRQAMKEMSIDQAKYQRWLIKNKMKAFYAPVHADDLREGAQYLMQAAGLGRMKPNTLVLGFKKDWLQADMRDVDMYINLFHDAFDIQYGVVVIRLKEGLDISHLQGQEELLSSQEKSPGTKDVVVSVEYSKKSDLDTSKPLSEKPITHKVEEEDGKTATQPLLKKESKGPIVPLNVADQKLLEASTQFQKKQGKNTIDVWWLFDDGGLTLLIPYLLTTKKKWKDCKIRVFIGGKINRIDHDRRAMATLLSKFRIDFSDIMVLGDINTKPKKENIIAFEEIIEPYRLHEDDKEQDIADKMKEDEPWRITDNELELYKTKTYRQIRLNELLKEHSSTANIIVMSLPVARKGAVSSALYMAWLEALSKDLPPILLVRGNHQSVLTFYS
As to the kind of experiment: NKCC1-mediated K+ influx (83Rb tracer uptake) in native HEK293 cells, hypertonic saline, 100 μM ouabain. It counts as cell-based. Particulars: HEK293, no drug = 1000, 20 μM bumetanide = 0; for inhibition at 2 µM: read-out: NKCC1 mediated flux inhibition at 2 μM (%); for inhibition at 20 µM: read-out: NKCC1 mediated flux inhibition at 20 μM (%). In short, it runs like this: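 Native cells in slightly hypertonic saline with 100 μM ouabain; 15 min preincubation then 15 min 83Rb uptake (0.25 μCi/mL), scintillation counting normalized to protein. Compounds at 2 μM and 20 μM; flux scaled 1000 (no drug) to 0 (20 μM bumetanide), triplicate dishes.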

In general, inhibition refers to the drop in the measured response relative to a control, in per cent. For the compound `CCCCNc1cc(C(=O)O)cc(S(=N)(=O)Nc2cncnc2)c1Oc1ccccc1` (stereo not drawn) [Compound 80, 3-(butylamino)-4-phenoxy-5-[(pyrimidin-5-ylamino)sulfonimidoyl]benzoic acid], the inhibition at 2 µM fell in the range of 30 to 50% and the inhibition at 20 µM is ≥ 75%. `CCCCNc1cc(C(=O)O)cc(S(=N)(=O)Nc2cccc(Cl)c2)c1Oc1ccccc1` (stereo not drawn) [Compound 70, 3-(butylamino)-5-[(3-chloroanilino)sulfonimidoyl]-4-phenoxy-benzoic acid]: the inhibition at 2 µM was ≥ 75% and the inhibition at 20 µM was ≥ 75%. As for `CCCCNc1cc(C(=O)OC)cc(S(=O)(=Nc2ccccc2)N2CCCCCC2)c1Oc1ccccc1` (stereo not drawn) [Compound 99, methyl 3-[S-(azepan-1-yl)-N-phenyl-sulfonimidoyl]-5-(butylamino)-4-phenoxy-benzoate], the inhibition at 2 µM lay in the range of 30 to 50% and the inhibition at 20 µM lay within 10 to 30%.

For the compound `CCCCNc1cc(C(=O)OC)cc(S(C)(=O)=NC)c1Oc1ccccc1` (stereo not drawn) [Compound 133, methyl 3-(butylamino)-5-(N,S-dimethylsulfonimidoyl)-4-phenoxy-benzoate], the inhibition at 2 µM was 30 to 50% and the inhibition at 20 µM lay within 10 to 30%. Turning to `CCCCNc1cc(C(=O)OC)cc(S(=N)(=O)Nc2ccccc2)c1Oc1ccccc1` (stereo not drawn) [Compound 7, methyl 3-(anilinosulfonimidoyl)-5-(butylamino)-4-phenoxy-benzoate], the inhibition at 2 µM was in the range of 10 to 30% and the inhibition at 20 µM was 50 to 75%. On the same counts, the results for `CCCCNc1cc(C(=O)OC)cc(S(=N)(=O)NCc2ccn(C)n2)c1Oc1ccccc1` (stereo not drawn) [Compound 42, methyl 3-(butylamino)-5-[[(1-methylpyrazol-3-yl)methylamino]sulfonimidoyl]-4-phenoxy-benzoate] are 10 to 30% and 10 to 30%. On to `CCCCNc1cc(C(=O)O)cc(S(=N)(=O)NC2CCN(C(C)=O)CC2)c1Oc1ccccc1` (stereo not drawn) [Compound 92, 3-[[(1-acetyl-4-piperidyl)amino]sulfonimidoyl]-5-(butylamino)-4-phenoxy-benzoic acid], for which the inhibition at 2 µM fell in the range of 10 to 30% and the inhibition at 20 µM was in the range of 50 to 75%.

As for `CCCCNc1cc(C(=O)NCCOC)cc(S(=N)(=O)NC2CCOCC2)c1Oc1ccccc1` (stereo not drawn) [Compound 122, 3-(butylamino)-N-(2-methoxyethyl)-4-phenoxy-5-[(tetrahydropyran-4-ylamino)sulfonimidoyl]benzamide], the inhibition at 2 µM lay within 30 to 50% and the inhibition at 20 µM was in the range of 30 to 50%. For the compound `CCCCNc1cc(C(=O)OC)cc(S(=N)(=O)N(C)c2ccccc2)c1Oc1ccccc1` (stereo not drawn) [Compound 14, methyl 3-(butylamino)-5-[(N-methylanilino)sulfonimidoyl]-4-phenoxy-benzoate], the inhibition at 2 µM lay in the range of 10 to 30% and the inhibition at 20 µM lay within 10 to 30%. Take `CCCCNc1cc(C(=O)OC)cc(S(=N)(=O)NCCc2ccccc2)c1Oc1ccccc1` (stereo not drawn) [Compound 34, methyl 3-(butylamino)-4-phenoxy-5-[(2-phenylethylamino)sulfonimidoyl]benzoate]: the inhibition at 20 µM is 30 to 50%. With `CCCCN=S(C)(=O)c1cc(C(=O)O)cc(NCCCC)c1Oc1ccccc1` (stereo not drawn) [Compound 131, 3-(butylamino)-5-(N-butyl-S-methyl-sulfonimidoyl)-4-phenoxy-benzoic acid], the inhibition at 2 µM was in the range of 30 to 50% and the inhibition at 20 µM was ≥ 75%. Turning to `CCCCNc1cc(C(=O)OC)cc(S(=N)(=O)NC2CN3CCC2CC3)c1Oc1ccccc1` (stereo not drawn) [Compound 48, methyl 3-(butylamino)-4-phenoxy-5-[(quinuclidin-3-ylamino)sulfonimidoyl]benzoate], the inhibition at 2 µM is 30 to 50% and the inhibition at 20 µM fell in the range of 50 to 75%.

For the compound `CCCCNc1cc(C(=O)O)cc(S(C)(=O)=NC)c1Oc1ccccc1` (stereo not drawn) [Compound 134, 3-(butylamino)-5-(N,S-dimethylsulfonimidoyl)-4-phenoxy-benzoic acid], the inhibition at 2 µM lay in the range of 30 to 50% and the inhibition at 20 µM was 50 to 75%. Turning to `CCCCNc1cc(C(=O)O)cc(S(=N)(=O)NCCc2nccs2)c1Oc1ccccc1` (stereo not drawn) [Compound 86, 3-(butylamino)-4-phenoxy-5-[(2-thiazol-2-ylethylamino)sulfonimidoyl]benzoic acid], the inhibition at 2 µM was 50 to 75% and the inhibition at 20 µM was ≥ 75%. As to `CCCCNc1cc(C(=O)OC)cc(S(=N)(=O)N2CCc3ccccc32)c1Oc1ccccc1` (stereo not drawn) [Compound 19, methyl 3-(butylamino)-5-(indolin-1-ylsulfonimidoyl)-4-phenoxy-benzoate], the inhibition at 2 µM lay within 30 to 50% and the inhibition at 20 µM lay within 10 to 30%.

For the compound `CCCCNc1cc(C(=O)O)cc(S(=N)(=O)N2Cc3ccccc3C2)c1Oc1ccccc1` (stereo not drawn) [Compound 72, 3-(butylamino)-5-(isoindolin-2-ylsulfonimidoyl)-4-phenoxy-benzoic acid], the inhibition at 2 µM fell in the range of 50 to 75% and the inhibition at 20 µM is ≥ 75%. As to `CCCCNc1cc(C(=O)NOC)cc(S(=N)(=O)NC2CCOCC2)c1Oc1ccccc1` (stereo not drawn) [Compound 121, 3-(butylamino)-N-methoxy-4-phenoxy-5-[(tetrahydropyran-4-ylamino)sulfonimidoyl]benzamide], the inhibition at 2 µM was in the range of 30 to 50% and the inhibition at 20 µM fell in the range of 30 to 50%. In the case of `CCCCNc1cc(C(=O)O)cc(S(=N)(=O)NC2CN3CCC2CC3)c1Oc1ccccc1` (stereo not drawn) [Compound 96, 3-(butylamino)-4-phenoxy-5-[(quinuclidin-3-ylamino)sulfonimidoyl]benzoic acid], the inhibition at 2 µM lay in the range of 30 to 50% and the inhibition at 20 µM was in the range of 30 to 50%. Take `CCCCNc1cc(C(=O)OC)cc(S(=N)(=O)N2CC3CCC(C2)O3)c1Oc1ccccc1` (stereo not drawn) [Compound 20, methyl 3-(butylamino)-5-(8-oxa-3-azabicyclo[3.2.1]octan-3-ylsulfonimidoyl)-4-phenoxy-benzoate]: the inhibition at 20 µM is 10 to 30%. On to `CCCCNc1cc(C(=O)O)cc(S(=N)(=O)NC2CCN(C)CC2)c1Oc1ccccc1` (stereo not drawn) [Compound 79, 3-(butylamino)-5-[[(1-methyl-4-piperidyl)amino]sulfonimidoyl]-4-phenoxy-benzoic acid], for which the inhibition at 2 µM was 30 to 50% and the inhibition at 20 µM fell in the range of 50 to 75%. As to `CCCCNc1cc(C(=O)NC)cc(S(=N)(=O)NCC2CCOCC2)c1Oc1ccccc1` (stereo not drawn) [Compound 103, 3-(butylamino)-N-methyl-4-phenoxy-5-[(tetrahydropyran-4-ylmethylamino)sulfonimidoyl]benzamide], the inhibition at 2 µM fell in the range of 30 to 50% and the inhibition at 20 µM is 50 to 75%.

Consider `CCCCNc1cc(C(=O)OC)cc(S(=N)(=O)NCC2CCOCC2)c1Oc1ccccc1` (stereo not drawn) [Compound 13, methyl 3-(butylamino)-4-phenoxy-5-[(tetrahydropyran-4-ylmethylamino)sulfonimidoyl]benzoate], for which the inhibition at 20 µM is 10 to 30%. Take `CCCCNc1cc(C(=O)O)cc(S(=N)(=O)NCc2nccs2)c1Oc1ccccc1` (stereo not drawn) [Compound 85, 3-(butylamino)-4-phenoxy-5-[(thiazol-2-ylmethylamino)sulfonimidoyl]benzoic acid]: the inhibition at 2 µM fell in the range of 30 to 50% and the inhibition at 20 µM was ≥ 75%. `CCCCNc1cc(C(=O)NOC)cc(S(=N)(=O)Nc2ccccc2)c1Oc1ccccc1` (stereo not drawn) [Compound 108, 3-(anilinosulfonimidoyl)-5-(butylamino)-N-methoxy-4-phenoxy-benzamide]: the inhibition at 2 µM fell in the range of 30 to 50% and the inhibition at 20 µM is 30 to 50%.

For the compound `CCCCNc1cc(C(=O)NCCOC)cc(S(=N)(=O)Nc2ccccc2)c1Oc1ccccc1` (stereo not drawn) [Compound 109, 3-(anilinosulfonimidoyl)-5-(butylamino)-N-(2-methoxyethyl)-4-phenoxy-benzamide], the inhibition at 20 µM was 10 to 30%. On to `CCCCNc1cc(C(=O)O)cc(S(=N)(=O)NCc2ccn(C)n2)c1Oc1ccccc1` (stereo not drawn) [Compound 87, 3-(butylamino)-5-[[(1-methylpyrazol-3-yl)methylamino]sulfonimidoyl]-4-phenoxy-benzoic acid], for which the inhibition at 2 µM is 50 to 75% and the inhibition at 20 µM was ≥ 75%.

Source of the values: patent US20260374782A1, “NEW COMPOUNDS, PROCESSES FOR PREPARING THE SAME AND THEIR USE AS DRUGS” (B&A ONCOMEDICAL, priority 2022, published 2026).
